Results on 4 compounds are retold here after patent EP0363224A1, “Treatment of periodontal disease” (BLOCK DRUG COMPANY INC., priority 1988, dated 1990).

In one test the test system is cyclooxygenase. The experiment in a line: inhibition of cyclooxygenase conversion of radiolabeled arachidonic acid into prostaglandins in homogenate of inflamed gingival tissue. The note with it: comparison of IC₅₀ values. It counts as biochemical, humans.
Test [1] concerns naturally occurring periodontal disease. The note with it: systemic doses, 12-month treatment, compared to untreated or periodontal surgery control groups; cited from earlier work.
For the next test, the system named is alveolar bone resorption. The conditions noted are these: long-term therapy, compared to matched undosed control group; cited from earlier work.

Procedure for cyclooxygenase: Inflamed gingival tissues from the mouths of humans suffering from periodontal disease were used fresh or stored in liquid nitrogen until used. Tis­sues were pooled, homogenized in 0.2 M TRIS buffer, and centrifuged. Radiolabeled arachidonic acid (¹⁴C) was added to the centrifrugate into which various in­hibiting agents under study had been incorporated into separate aliquots, at various molar levels (log range of 10⁻³ to 10⁻⁹M). The reaction between arachidonic acid and test materials was carried out for 2 hours at 37°C.
Prostaglandins in the biological reaction mixtures were extracted and quantitatively determined by high performance liquid chromatography.

For `CC(C(=O)O)c1cccc(C(=O)c2ccccc2)c1` (stereo not shown) [2-methyl (3-benzoylphenyl) propanoic acid], the “effectiveness compared with other test materials” value with cyclooxygenase is on record as “slightly more effective than alpha tocopherol”.

In the case of `CC(C(=O)O)c1ccc(-c2ccccc2)c(F)c1` (stereo not shown) [Flurbiprofen], the alveolar bone loss result in test [1] was “significant reduction in alveolar bone loss”.

Consider `COc1ccc2c(c1)c(CC(=O)O)c(C)n2C(=O)c1ccc(Cl)cc1` [Indomethacin], for which the “rate of alveolar bone resorption” value in the test with alveolar bone resorption is listed as “lower rate of alveolar bone resorption”.

With `CC(=O)Oc1ccccc1C(=O)O` [aspirin], the “rate of alveolar bone resorption” value in the test on alveolar bone resorption is “lower rate of alveolar bone resorption”.
